From US12371428B2 (Exelixis, Inc., priority 2019, dated 2025)
Read-outs that look alike come from different tables or passages of the source.

Legend:
Assay type in all cases: cell-based
[1] = target: AXL (phospho-AXL, Gas6-stimulated A-172 glioblastoma cells) (Homo sapiens (Human), UniProt P30530); assay: AXL autophosphorylation ELISA in A-172 cells (Example E); settings: cellular activity, read-out: Axl IC50
How it was run: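 Phospho-AXL in lysates was quantified by ELISA, normalised to DMSO (100%) and reference inhibitor (0%) controls. IC50 by 4-parameter logistic fit.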

[2] = target: Met (phospho-Met, HGF-stimulated PC-3 prostate cancer cells) (Homo sapiens (Human), UniProt P08581); assay: Met autophosphorylation ELISA in PC-3 cells (Example F); settings: cellular activity, read-out: c-Met IC50
How it was run: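 Sandwich ELISA for phospho-Met (panTyr) in PC-3 lysates. Cells starved 3 h serum-free, compound 1 h (8-pt curve, 0.3% DMSO), HGF 100 ng/mL 10 min. 100% = HGF + DMSO; 0% = HGF + reference inhibitor. IC50 by 4-parameter fit.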

[3] = target: KDR (phospho-KDR, VEGF165-stimulated HUVEC cells) (Homo sapiens (Human), UniProt P35968); assay: KDR autophosphorylation ELISA in HUVEC cells (Example G); settings: cellular activity
How it was run: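 HUVECs were serum-starved 24 h, given compound as an 8-point dilution series (0.3% DMSO final) for 1 h, then stimulated with 100 ng/mL VEGF165 for 5 min. Lysate phospho-KDR was quantified by sandwich ELISA against a phospho-KDR standard, and IC50s came from a 4-parameter logistic fit.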

[4] = target: Mer (phospho-Mer, MERTK-transfected 293A cells) (Homo sapiens (Human), UniProt Q12866); assay: Mer autophosphorylation ELISA in transient transfected 293A cells (Example H); settings: cellular activity
How it was run: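 Inhibition of cellular Mer autophosphorylation is determined in 293A cells transiently expressing human MERTK after 1 h compound exposure (8 concentrations, serum-free, 0.3% DMSO). Phospho-Mer in clarified lysates is measured by ELISA, with DMSO and reference-inhibitor wells defining the 100% and 0% activity limits.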

[5] = AXL autophosphorylation ELISA in A-172 cells
[6] = Met autophosphorylation ELISA in PC-3 cells
[7] = KDR autophosphorylation ELISA in HUVEC cells
[8] = Mer autophosphorylation ELISA in transient transfected 293A cells

Chain of KDR (phospho-KDR, VEGF165-stimulated HUVEC cells) (P35968 20-1356): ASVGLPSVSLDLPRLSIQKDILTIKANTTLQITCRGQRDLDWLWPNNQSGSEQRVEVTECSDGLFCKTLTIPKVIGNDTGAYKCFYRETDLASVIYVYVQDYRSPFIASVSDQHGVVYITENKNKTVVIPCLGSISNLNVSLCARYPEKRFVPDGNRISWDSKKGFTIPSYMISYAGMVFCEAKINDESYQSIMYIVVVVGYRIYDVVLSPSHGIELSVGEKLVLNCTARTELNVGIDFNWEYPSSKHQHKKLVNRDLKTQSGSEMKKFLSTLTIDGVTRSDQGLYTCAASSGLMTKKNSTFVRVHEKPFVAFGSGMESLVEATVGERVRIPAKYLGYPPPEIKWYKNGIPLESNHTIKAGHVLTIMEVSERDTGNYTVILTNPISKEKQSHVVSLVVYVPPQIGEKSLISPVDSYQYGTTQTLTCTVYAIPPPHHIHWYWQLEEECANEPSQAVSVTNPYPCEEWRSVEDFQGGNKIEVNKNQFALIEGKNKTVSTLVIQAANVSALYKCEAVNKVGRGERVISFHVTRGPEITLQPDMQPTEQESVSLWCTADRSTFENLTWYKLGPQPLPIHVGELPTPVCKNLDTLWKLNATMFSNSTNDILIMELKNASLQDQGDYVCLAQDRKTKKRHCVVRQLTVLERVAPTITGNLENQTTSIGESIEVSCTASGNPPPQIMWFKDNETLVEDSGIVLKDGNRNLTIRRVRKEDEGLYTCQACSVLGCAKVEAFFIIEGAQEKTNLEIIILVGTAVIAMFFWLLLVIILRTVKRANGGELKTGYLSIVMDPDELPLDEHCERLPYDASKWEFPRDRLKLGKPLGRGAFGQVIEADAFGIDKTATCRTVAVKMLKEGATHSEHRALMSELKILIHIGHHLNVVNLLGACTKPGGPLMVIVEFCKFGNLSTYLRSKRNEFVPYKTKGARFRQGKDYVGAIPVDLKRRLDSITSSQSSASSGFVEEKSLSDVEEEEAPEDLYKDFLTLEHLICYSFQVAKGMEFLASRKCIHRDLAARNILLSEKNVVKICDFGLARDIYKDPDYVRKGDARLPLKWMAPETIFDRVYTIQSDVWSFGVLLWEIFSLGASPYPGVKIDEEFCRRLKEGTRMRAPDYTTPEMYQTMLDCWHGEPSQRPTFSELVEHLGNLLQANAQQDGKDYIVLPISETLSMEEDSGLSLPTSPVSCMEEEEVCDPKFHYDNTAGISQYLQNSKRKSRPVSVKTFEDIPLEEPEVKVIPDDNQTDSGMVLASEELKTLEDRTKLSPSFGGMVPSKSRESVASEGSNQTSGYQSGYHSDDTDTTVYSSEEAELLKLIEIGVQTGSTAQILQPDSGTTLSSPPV
Chain of Mer (phospho-Mer, MERTK-transfected 293A cells) (Q12866 21-999): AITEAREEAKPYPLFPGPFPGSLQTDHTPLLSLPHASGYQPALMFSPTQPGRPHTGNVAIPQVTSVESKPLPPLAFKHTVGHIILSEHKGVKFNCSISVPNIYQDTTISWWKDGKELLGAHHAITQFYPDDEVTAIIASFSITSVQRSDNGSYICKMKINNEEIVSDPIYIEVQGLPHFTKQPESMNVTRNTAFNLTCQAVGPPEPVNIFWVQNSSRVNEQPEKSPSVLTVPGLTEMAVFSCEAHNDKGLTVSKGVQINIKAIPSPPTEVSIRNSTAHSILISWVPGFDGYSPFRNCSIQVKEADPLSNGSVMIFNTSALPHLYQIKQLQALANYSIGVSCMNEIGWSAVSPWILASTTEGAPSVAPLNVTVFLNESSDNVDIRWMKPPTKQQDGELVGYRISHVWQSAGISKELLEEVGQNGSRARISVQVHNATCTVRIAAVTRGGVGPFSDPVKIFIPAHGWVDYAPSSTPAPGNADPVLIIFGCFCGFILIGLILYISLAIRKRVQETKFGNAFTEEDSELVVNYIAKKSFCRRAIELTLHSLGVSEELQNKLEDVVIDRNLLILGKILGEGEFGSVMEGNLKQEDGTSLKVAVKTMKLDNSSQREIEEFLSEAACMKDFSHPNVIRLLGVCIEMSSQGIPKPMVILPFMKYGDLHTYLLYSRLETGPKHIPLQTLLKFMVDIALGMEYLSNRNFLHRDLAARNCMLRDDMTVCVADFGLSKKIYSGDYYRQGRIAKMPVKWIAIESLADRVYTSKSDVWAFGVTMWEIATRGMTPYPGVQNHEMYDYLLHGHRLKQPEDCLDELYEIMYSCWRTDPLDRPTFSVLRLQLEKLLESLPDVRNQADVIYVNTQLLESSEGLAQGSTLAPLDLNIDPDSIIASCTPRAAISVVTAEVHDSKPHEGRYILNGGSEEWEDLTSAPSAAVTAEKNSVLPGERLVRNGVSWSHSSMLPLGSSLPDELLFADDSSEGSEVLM
Chain of AXL (phospho-AXL, Gas6-stimulated A-172 glioblastoma cells) (P30530 26-894): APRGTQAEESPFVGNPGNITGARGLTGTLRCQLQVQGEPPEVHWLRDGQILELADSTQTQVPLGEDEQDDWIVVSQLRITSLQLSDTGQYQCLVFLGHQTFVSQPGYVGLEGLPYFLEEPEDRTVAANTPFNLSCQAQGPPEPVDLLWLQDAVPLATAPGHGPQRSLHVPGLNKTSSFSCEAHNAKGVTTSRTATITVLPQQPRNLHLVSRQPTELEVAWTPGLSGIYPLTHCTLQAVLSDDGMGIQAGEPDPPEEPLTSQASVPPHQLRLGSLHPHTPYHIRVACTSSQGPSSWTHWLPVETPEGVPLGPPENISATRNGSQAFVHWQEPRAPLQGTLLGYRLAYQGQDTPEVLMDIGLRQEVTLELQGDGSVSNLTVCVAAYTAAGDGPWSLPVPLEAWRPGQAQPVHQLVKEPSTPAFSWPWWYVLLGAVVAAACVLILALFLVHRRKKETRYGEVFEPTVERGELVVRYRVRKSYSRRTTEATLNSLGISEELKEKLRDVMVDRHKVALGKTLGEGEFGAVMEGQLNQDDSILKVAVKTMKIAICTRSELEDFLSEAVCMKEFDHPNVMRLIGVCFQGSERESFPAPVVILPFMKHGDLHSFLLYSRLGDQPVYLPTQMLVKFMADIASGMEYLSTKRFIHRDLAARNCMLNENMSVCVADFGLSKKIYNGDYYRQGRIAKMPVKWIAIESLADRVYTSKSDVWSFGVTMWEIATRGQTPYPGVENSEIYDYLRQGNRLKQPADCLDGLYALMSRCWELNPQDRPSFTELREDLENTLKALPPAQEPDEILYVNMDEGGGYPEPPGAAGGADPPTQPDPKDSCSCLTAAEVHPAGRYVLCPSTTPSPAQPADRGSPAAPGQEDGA
Chain of Met (phospho-Met, HGF-stimulated PC-3 prostate cancer cells) (P08581 25-1390): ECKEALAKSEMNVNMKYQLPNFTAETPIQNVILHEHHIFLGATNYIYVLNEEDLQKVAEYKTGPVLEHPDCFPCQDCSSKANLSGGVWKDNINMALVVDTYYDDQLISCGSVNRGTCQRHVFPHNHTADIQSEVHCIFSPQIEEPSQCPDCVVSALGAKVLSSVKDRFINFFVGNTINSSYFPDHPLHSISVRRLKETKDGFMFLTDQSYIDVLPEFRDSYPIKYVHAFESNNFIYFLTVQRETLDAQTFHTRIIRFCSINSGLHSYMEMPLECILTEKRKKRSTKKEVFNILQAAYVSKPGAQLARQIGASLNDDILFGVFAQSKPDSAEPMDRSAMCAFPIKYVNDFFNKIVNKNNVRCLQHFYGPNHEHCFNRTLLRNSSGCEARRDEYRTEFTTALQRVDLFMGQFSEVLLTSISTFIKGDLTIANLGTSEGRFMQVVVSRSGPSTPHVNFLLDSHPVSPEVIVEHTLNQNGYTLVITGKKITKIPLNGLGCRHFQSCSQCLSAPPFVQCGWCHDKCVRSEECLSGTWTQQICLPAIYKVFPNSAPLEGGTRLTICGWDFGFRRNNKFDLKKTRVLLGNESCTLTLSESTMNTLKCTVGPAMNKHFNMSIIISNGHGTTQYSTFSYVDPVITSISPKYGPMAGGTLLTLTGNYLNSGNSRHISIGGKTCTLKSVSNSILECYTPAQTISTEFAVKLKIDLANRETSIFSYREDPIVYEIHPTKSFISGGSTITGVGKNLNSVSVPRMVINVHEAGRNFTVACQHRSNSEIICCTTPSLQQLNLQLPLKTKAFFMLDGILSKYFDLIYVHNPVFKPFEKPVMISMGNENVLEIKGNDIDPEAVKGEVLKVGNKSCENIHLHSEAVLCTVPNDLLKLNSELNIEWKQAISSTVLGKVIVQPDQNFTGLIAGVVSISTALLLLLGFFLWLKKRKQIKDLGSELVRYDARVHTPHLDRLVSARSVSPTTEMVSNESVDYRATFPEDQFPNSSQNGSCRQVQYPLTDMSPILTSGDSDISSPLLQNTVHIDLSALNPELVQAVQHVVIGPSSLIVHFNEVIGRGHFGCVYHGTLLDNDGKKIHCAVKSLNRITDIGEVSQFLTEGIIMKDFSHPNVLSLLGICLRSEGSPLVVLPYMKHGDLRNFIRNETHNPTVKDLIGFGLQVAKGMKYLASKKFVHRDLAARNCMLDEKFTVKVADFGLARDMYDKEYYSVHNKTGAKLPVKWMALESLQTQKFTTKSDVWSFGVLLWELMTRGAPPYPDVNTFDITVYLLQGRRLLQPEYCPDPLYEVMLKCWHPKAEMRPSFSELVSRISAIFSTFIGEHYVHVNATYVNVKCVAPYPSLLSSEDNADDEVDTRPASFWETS

Compound	IC50 [1, 5]	IC50 [2, 6]	IC50 [3, 7]	IC50 [4, 8]	IC50 ([1]; A-172 cells)	IC50 ([2]; PC-3 cells)	IC50 ([3]; HUVEC cells)	IC50 ([4]; transfected 293A cells)
COc1cc2nccc(Oc3ccc(NC(=O)c4cn(C)c(C)c(-c5ccc(F)cc5F)c4=O)cc3)c2nc1OC [Compound 396, 5-(2,4-difluorophenyl)-N-[4-[(6,7-dimethoxy-1,5-naphthyridin-4-yl)oxy]phenyl]-1,6-dimethyl-4-oxopyridine-3-carboxamide]	< 100 nM	< 100 nM	< 100 nM	< 100 nM	–	–	–	–
COc1cnc2c(Oc3ccc(NC(=O)c4c(C)nc(C)c(-c5ccc(F)cc5C)c4O)cc3)ccnc2c1 [Compound 682, 5-(4-fluoro-2-methylphenyl)-4-hydroxy-N-[4-[(7-methoxy-1,5-naphthyridin-4-yl)oxy]phenyl]-2,6-dimethylpyridine-3-carboxamide]	< 100 nM	< 100 nM	< 100 nM	< 100 nM	–	–	–	–
COc1cc2nccc(Oc3ccc(NC(=O)c4cn(C)c(C)c(-c5ccc(F)cc5)c4=O)cc3C)c2nc1OC [Compound 763, N-[4-[(6,7-dimethoxy-1,5-naphthyridin-4-yl)oxy]-3-methylphenyl]-5-(4-fluorophenyl)-1,6-dimethyl-4-oxopyridine-3-carboxamide]	< 100 nM	< 100 nM	< 100 nM	< 100 nM	–	–	–	–
COc1cc2nccc(Oc3ccc(NC(=O)c4nc(C)cn(-c5ccc(F)cc5)c4=O)cc3F)c2nc1OC [Compound 684, N-[4-[(6,7-dimethoxy-1,5-naphthyridin-4-yl)oxy]-3-fluorophenyl]-4-(4-fluorophenyl)-6-methyl-3-oxopyrazine-2-carboxamide]	< 100 nM	< 100 nM	> 300 nM	< 100 nM	–	–	–	–
Cc1ccc(C(=O)Nc2ccc(Oc3ccnc4cnc(Cl)cc34)c(F)c2)c(=O)n1-c1ccc(F)cc1 [Compound 496, N-[4-[(6-chloro-1,7-naphthyridin-4-yl)oxy]-3-fluorophenyl]-1-(4-fluorophenyl)-6-methyl-2-oxopyridine-3-carboxamide]	< 100 nM	< 100 nM	< 100 nM	< 100 nM	–	–	–	–
COCCOc1nc2c(Oc3ccc(NC(=O)c4c(C)nc(C)c(-c5ccc(F)cc5)c4O)cc3F)ccnc2cc1OC [Compound 207, N-[3-Fluoro-4-[[7-methoxy-6-(2-methoxyethoxy)-1,5-naphthyridin-4-yl]oxy]phenyl]-5-(4-fluorophenyl)-4-hydroxy-2,6-dimethylpyridine-3-carboxamide]	< 100 nM	< 100 nM	< 100 nM	< 100 nM	–	–	–	–
COc1cnc2c(Oc3ccc(NC(=O)c4c(C)n(CC(F)F)cc(-c5ccc(F)c(C)c5)c4=O)cc3F)ccnc2c1 [Compound 814, 1-(2,2-difluoroethyl)-N-[3-fluoro-4-[(7-methoxy-1,5-naphthyridin-4-yl)oxy]phenyl]-5-(4-fluoro-3-methylphenyl)-2-methyl-4-oxopyridine-3-carboxamide]	–	–	–	–	< 100 nM	< 100 nM	> 300 nM	< 100 nM
COc1cnc2c(Oc3ccc(NC(=O)c4cn(CC(F)F)c(C)c(-c5ccc(F)cc5C)c4=O)cc3F)ccnc2c1 [Compound 723, 1-(2,2-difluoroethyl)-N-[3-fluoro-4-[(7-methoxy-1,5-naphthyridin-4-yl)oxy]phenyl]-5-(4-fluoro-2-methylphenyl)-6-methyl-4-oxopyridine-3-carboxamide]	< 100 nM	< 100 nM	> 300 nM	< 100 nM	–	–	–	–
COc1cc2nccc(Oc3ccc(NC(=O)c4cn5c(c(-c6ccc(F)cc6)c4=O)OC(C)C5)cc3F)c2nc1OC (stereo not drawn) [Compound 759, N-[4-[(6,7-dimethoxy-1,5-naphthyridin-4-yl)oxy]-3-fluorophenyl]-8-(4-fluorophenyl)-2-methyl-7-oxo-2,3-dihydro-[1,3]oxazolo[3,2-a]pyridine-6-carboxamide]	< 100 nM	< 100 nM	< 100 nM	< 100 nM	–	–	–	–
COc1cc2nccc(Oc3ccc(NC(=O)c4nnc(C)c(-c5ccc(F)cc5)c4OC)cc3F)c2nc1OC [Compound 531, N-[4-[(6,7-dimethoxy-1,5-naphthyridin-4-yl)oxy]-3-fluorophenyl]-5-(4-fluorophenyl)-4-methoxy-6-methylpyridazine-3-carboxamide]	< 100 nM	< 100 nM	< 100 nM	< 100 nM	–	–	–	–
COc1cc2nccc(Oc3ccc(NC(=O)c4c(C)n(CCF)cc(-c5ccc(F)cc5)c4=O)cc3F)c2nc1OC [Compound 666, N-[4-[(6,7-dimethoxy-1,5-naphthyridin-4-yl)oxy]-3-fluorophenyl]-1-(2-fluoroethyl)-5-(4-fluorophenyl)-2-methyl-4-oxopyridine-3-carboxamide]	< 100 nM	< 100 nM	100 to 300 nM	< 100 nM	–	–	–	–
COc1cc2nccc(Oc3ccc(NC(=O)c4c(C)nnc(-c5ccc(F)cc5)c4OC)cc3F)c2nc1OC [Compound 657, N-[4-[(6,7-dimethoxy-1,5-naphthyridin-4-yl)oxy]-3-fluorophenyl]-6-(4-fluorophenyl)-5-methoxy-3-methylpyridazine-4-carboxamide]	< 100 nM	< 100 nM	< 100 nM	< 100 nM	–	–	–	–
COCCOc1cc2nccc(Oc3ccc(NC(=O)c4cc(C(C)=O)c(C)n(-c5ccc(F)cc5)c4=O)cc3)c2nc1OC [Compound 757, 5-acetyl-1-(4-fluorophenyl)-N-[4-[[6-methoxy-7-(2-methoxyethoxy)-1,5-naphthyridin-4-yl]oxy]phenyl]-6-methyl-2-oxopyridine-3-carboxamide]	< 100 nM	< 100 nM	> 300 nM	< 100 nM	–	–	–	–
COc1cc2nccc(Oc3cc(C)c(NC(=O)c4cn(C)c(C)c(-c5ccc(F)cc5)c4=O)cc3F)c2nc1OC [Compound 744, N-[4-[(6,7-dimethoxy-1,5-naphthyridin-4-yl)oxy]-5-fluoro-2-methylphenyl]-5-(4-fluorophenyl)-1,6-dimethyl-4-oxopyridine-3-carboxamide]	< 100 nM	< 100 nM	> 300 nM	< 100 nM	–	–	–	–
COc1cnc2c(Oc3ccc(NC(=O)c4c(C)nc(C)c(-c5ccc(S(C)(=O)=O)cc5)c4O)cc3F)ccnc2c1 [Compound 694, N-[3-fluoro-4-[(7-methoxy-1,5-naphthyridin-4-yl)oxy]phenyl]-4-hydroxy-2,6-dimethyl-5-(4-methylsulfonylphenyl)pyridine-3-carboxamide]	> 300 nM	100 to 300 nM	> 300 nM	< 100 nM	–	–	–	–
COCCOc1cc2nccc(Oc3ccc(NC(=O)c4ccc(C)n(-c5ccc(F)cc5)c4=O)cc3F)c2nc1OC [Compound 484, N-[3-fluoro-4-[[6-methoxy-7-(2-methoxyethoxy)-1,5-naphthyridin-4-yl]oxy]phenyl]-1-(4-fluorophenyl)-6-methyl-2-oxopyridine-3-carboxamide]	< 100 nM	< 100 nM	< 100 nM	< 100 nM	–	–	–	–
CCOc1nc2c(Oc3ccc(NC(=O)c4c(COC)nc(C)c(-c5ccc(F)cc5)c4O)cc3F)ccnc2cc1OC [Compound 676, N-[4-[(6-ethoxy-7-methoxy-1,5-naphthyridin-4-yl)oxy]-3-fluorophenyl]-5-(4-fluorophenyl)-4-hydroxy-2-(methoxymethyl)-6-methylpyridine-3-carboxamide]	< 100 nM	< 100 nM	< 100 nM	< 100 nM	–	–	–	–
COCc1ccc(C(=O)Nc2ccc(Oc3ccnc4cc(OC)c(OC)nc34)c(F)c2)c(=O)n1-c1ccc(F)cc1 [Compound 358, N-[4-[(6,7-dimethoxy-1,5-naphthyridin-4-yl)oxy]-3-fluorophenyl]-1-(4-fluorophenyl)-6-(methoxymethyl)-2-oxopyridine-3-carboxamide]	< 100 nM	< 100 nM	< 100 nM	< 100 nM	–	–	–	–
COc1cc2nccc(Oc3ccc(NC(=O)c4cc(-c5ccc(F)cc5)c(C)nn4)cc3F)c2nc1OC [Compound 601, N-[4-[(6,7-Dimethoxy-1,5-naphthyridin-4-yl)oxy]-3-fluorophenyl]-5-(4-fluorophenyl)-6-methylpyridazine-3-carboxamide]	> 300 nM	> 300 nM	> 300 nM	< 100 nM	–	–	–	–
COc1cc2ncnc(Oc3ccc(NC(=O)c4ccc(C)n(-c5ccc(F)cc5)c4=O)cc3F)c2nc1OC [Compound 635]	< 100 nM	< 100 nM	< 100 nM	< 100 nM	–	–	–	–
CCc1c(C)c(C(=O)Nc2ccc(Oc3ccnc4cc(OC)c(OC)nc34)cc2)c(=O)n(-c2ccc(F)cc2)c1C [Compound 331, N-[4-[(6,7-dimethoxy-1,5-naphthyridin-4-yl)oxy]phenyl]-5-ethyl-1-(4-fluorophenyl)-4,6-dimethyl-2-oxopyridine-3-carboxamide]	< 100 nM	< 100 nM	> 300 nM	< 100 nM	–	–	–	–
